Measured values: patent US20230310435A1, “HOST DEFENSE PROTEIN (HDP) MIMETICS FOR PROPHYLAXIS AND/OR TREATMENT OF INFLAMMATORY DISEASES OF THE GASTROINTESTINAL TRACT” (priority 2015, published 2023)

Experiments:
[1] = test system: acetic acid-induced colitis; assay type: in vivo
Method: (§1) Method for FIG. 14. […] Balb/c mice were fasted for 24 hours. Colitis was induced by injecting 200 μL of 4% acetic acid into the rectum. […] Another group of animals were treated with 5-ASA (5-aminosalicylic acid or mesalamine), and another received no treatment. Seven days after the first dose, five cm of intestine were cleaned in cold saline then weighed.
as §1, with “15.” for “14.”, “dose the colon was examined visually for mucosal injury and scored according to the Table below.” for “dose, five cm of intestine were cleaned in cold saline then weighed.”
Briefly, colitis was induced by injecting 4% acetic acid into the rectum.

DSS-induced colitis = assay: Dextran sulfate sodium (DSS)-induced acute colitis model; assay type: in vivo, male C57BL/6 mice; details: end of study; brilacidin 400 mg/kg or 5-ASA 50 mg/kg per rectum Days 7-11
Method: The efficacy of brilacidin administered was investigated in a murine model of chemically-induced acute colitis using dextran sulfate sodium (DSS). This was a different in vivo model of IBD to the testing performed in Examples 16 and 17 (where mucosal injury was induced by using acetic acid). DSS-induced colitis in mice is characterized by weight loss, bloody diarrhea, intestinal ulcerations and infiltrations with granulocytes. In mice, DSS was administered from Day 0 to Day 11, as a 5% (w/v) DSS solution in the drinking water of male C57BL/6 mice (Kim J J, et al., J. Vis. Exp., 2012, 60, 3678), to induce severe murine colitis. On Days 7-11, test compound brilacidin (400 mg/kg) or positive control 5-ASA (50 mg/kg) or water (negative control) were administered as a solution, per rectum. On Days 6, 10 and 11, rectal bleeding was assessed using a Hemoccult® kit and stool consistency was visually assessed; severity of symptoms were scored on a scale of 0 (normal) to 4 (severe). Level of pro-inflammatory cytokines interleukin (IL)-6 and IL-1β in distal colon tissue were determined from excised colons using conventional ELISA methods.

human PDE4B2 = human PDE4B2 (Homo sapiens, UniProt Q07343); assay: PDE-Glo phosphodiesterase assay, PDE4; assay type: biochemical; details: 8 ng PDE4B, 1 μM cAMP substrate, 15 min pre-incubation; read-out: IC50, inhibition of PDE4
Sequence of human PDE4B2 (Q07343 1-564 isoform Q07343-2): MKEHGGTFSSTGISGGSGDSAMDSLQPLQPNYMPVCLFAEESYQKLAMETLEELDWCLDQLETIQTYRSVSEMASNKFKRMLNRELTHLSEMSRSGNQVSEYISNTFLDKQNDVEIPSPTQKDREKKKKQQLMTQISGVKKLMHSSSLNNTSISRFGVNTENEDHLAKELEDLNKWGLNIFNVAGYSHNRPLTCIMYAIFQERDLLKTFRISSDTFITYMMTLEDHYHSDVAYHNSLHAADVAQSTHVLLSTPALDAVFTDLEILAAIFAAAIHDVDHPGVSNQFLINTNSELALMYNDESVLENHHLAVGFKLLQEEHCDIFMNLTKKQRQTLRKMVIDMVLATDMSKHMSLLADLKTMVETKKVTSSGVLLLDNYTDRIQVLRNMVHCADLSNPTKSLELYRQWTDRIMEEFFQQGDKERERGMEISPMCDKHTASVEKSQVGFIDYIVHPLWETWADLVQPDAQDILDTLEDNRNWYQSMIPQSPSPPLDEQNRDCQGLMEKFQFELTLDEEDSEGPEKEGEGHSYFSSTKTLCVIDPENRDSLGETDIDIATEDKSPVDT
Method: Method for FIG. 1. […] The compounds and PDE4B (BPS Biosciences, San Diego, CA) were mixed and pre-incubated at room temperature for 15 minutes. Substrate was added and the reaction was incubated for 7 minutes at room temperature. Data are presented as luminescence units (RLU).
Method for FIG. 2. Phosphodiesterase inhibition assays of PDE4 were performed, using PMX-60056. The PDE-Glo phosphodiesterase assay (Promega, Madison, WI, USA Catalog No. V1361) was performed using 8 ng of PDE4B (BPS Biosciences, San Diego, CA). […] The compounds and PDE4B were mixed and pre-incubated at room temperature for 15 minutes. Substrate was added and the reaction was incubated for 7 minutes at room temperature. Data are presented as luminescence units (RLU).
Phosphodiesterase type 4 (PDE4) is predominant phosphodiesterase expressed in neutrophils, T cells and macrophages. PDE inhibitors show broad spectrum of anti-inflammatory effects in almost all inflammatory cells. PDE4 inhibitors, block the degradative action of PDE4 on cAMP, thereby increasing intracellular levels of cAMP levels which mediate phosphorylation of protein kinases. […] Data are presented as luminescence units (RLU).
The PDE-Glo phosphodiesterase assay was performed according to the Method described for FIG. 2, using 8 ng of PDE4B, 1 μM cAMP substrate PMX-60056. Data are presented as luminescence units (RLU). […]

human PDE3A = human PDE3A (Homo sapiens, UniProt Q14432); assay: PDE-Glo phosphodiesterase assay, PDE3; assay type: biochemical; details: 2.75 ng PDE3A, 1 μM cAMP substrate, 15 min pre-incubation; read-out: IC50, inhibition of PDE3
Sequence of human PDE3A (Q14432 whole entry): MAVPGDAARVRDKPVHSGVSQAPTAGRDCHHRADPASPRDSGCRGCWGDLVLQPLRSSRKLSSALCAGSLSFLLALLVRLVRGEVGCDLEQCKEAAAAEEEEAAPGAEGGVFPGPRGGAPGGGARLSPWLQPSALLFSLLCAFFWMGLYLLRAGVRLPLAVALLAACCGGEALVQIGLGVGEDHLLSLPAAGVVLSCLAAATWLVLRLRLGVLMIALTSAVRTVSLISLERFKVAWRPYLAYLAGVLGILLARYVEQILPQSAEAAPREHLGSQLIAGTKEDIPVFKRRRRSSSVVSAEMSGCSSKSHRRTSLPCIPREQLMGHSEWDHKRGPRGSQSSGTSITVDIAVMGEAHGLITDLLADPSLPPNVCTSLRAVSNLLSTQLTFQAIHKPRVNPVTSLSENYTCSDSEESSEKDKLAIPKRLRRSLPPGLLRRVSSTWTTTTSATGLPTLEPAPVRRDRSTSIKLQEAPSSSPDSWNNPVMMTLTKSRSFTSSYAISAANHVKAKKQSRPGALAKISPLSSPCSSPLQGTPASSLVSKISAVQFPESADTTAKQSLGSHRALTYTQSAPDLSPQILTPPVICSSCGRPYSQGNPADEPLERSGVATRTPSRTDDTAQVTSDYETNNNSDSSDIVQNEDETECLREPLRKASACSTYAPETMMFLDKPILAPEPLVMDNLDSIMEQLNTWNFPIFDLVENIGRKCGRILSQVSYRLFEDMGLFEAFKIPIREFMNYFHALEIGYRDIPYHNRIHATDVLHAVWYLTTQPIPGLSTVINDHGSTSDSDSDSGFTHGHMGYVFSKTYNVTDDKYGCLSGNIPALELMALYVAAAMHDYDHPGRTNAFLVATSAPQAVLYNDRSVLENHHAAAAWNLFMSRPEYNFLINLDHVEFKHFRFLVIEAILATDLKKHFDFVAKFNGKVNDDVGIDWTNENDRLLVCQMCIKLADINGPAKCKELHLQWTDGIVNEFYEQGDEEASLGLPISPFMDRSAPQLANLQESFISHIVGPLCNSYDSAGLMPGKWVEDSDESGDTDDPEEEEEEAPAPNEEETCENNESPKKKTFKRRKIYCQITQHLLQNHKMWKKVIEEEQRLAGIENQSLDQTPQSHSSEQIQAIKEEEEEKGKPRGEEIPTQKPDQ
Method: Method for FIG. 3. […] The compounds and PDE3A were mixed and pre-incubated at room temperature for 15 minutes. Substrate was added and the reaction was incubated for 7 minutes at room temperature. Data are presented as luminescence units (RLU).
Method for FIG. 4. Phosphodiesterase inhibition assays of PDE3 were performed using PMX-60056. The PDE-Glo phosphodiesterase assay (Promega, Madison, WI, USA Catalog No. V1361) was performed according to manufacturer's instruction using 2.75 ng of PDE3A, 1 μM cAMP substrate and PMX60056. The compounds and PDE3A were mixed and pre-incubated at room temperature for 15 minutes. Substrate was added and the reaction was incubated for 7 minutes at room temperature. Data are presented as luminescence units (RLU).
The compounds and PDE3A were mixed and pre-incubated at room temperature for 15 minutes. Substrate was added and the reaction was incubated. […]
(§2) PDE4 and PDE3 inhibition results in subsequent down-regulation of pro-inflammatory cytokines/chemokines and its regulators, and experiments were conducted to confirm such down-regulation by brilacidin in ex vivo cell-based assays. In these assays, cells were exposed to brilacidin 45 minutes before an 8-hour lipopolysaccharide (LPS) stimulation in the presence of brilacidin; cytokine/enzyme concentrations were determined by ELISA using a standard immunoassay kit.

[2] = test system: LPS-induced TNF-α release, NR8383 cells; assay: LPS-induced TNF-α production in NR8383 rat macrophages (ELISA); assay type: cell-based
Method: Method for FIG. 5. TNF-alpha assays were performed using PMX-30063. […] TNF-α concentrations in the supernatants were determined by ELISA using an immunoassay kit specific for rat TNF-α (R&D Systems, Minneapolis, MN) according to manufacturer's instructions.
Method for FIG. 6. TNF-alpha assays were performed using PMX-60056. NR8383 rat macrophage cells were pretreated with PMX-60056 for 45 minutes followed by treatment with 1 μg/ml LPS from E. coli (Sigma, St. Louis, MO) for 8 hours. TNF-α concentrations in the supernatants were determined by ELISA using an immunoassay kit specific for rat TNF-α (R&D Systems, Minneapolis, MN) according to manufacturer's instructions.
The TNF-α inhibition assay was performed according to the Method described for FIG. 5. […] TNF-α concentrations in the supernatants were determined by ELISA using an immunoassay kit specific for rat TNF-α (R&D Systems).
The TNF-α inhibition assay was performed according to the Method described for FIG. 6. NR8383 rat macrophage cells (CRL-2192. ATCC) were pretreated with PMX-60056 for 45 minutes followed by treatment with 1 μg/ml LPS for 8 hours. TNF-α concentrations in the supernatants were determined by ELISA using an immunoassay kit specific for rat TNF-α (R&D Systems).
as §2

[3] = test system: LPS-induced MCP-1 release, NR8383 cells; assay: LPS-induced MCP-1 release in NR8383 rat macrophages (ELISA); assay type: cell-based
Method: Method for FIG. 7. […] After 8 hours, supernatants were collected for MCP-1 measurement by ELISA. MCP-1 was measured using an immunoassay kit according to manufacturer's instructions (Thermo Scientific, Rockford. IL).
Method for FIG. 8. MCP-1 assays were performed using PMX-60056. Rat macrophages (NR8383) were pretreated with […] with concentrations shown for 45 minutes, followed by 1 μg/ml LPS treatment from E. coli (Sigma, St. Louis, MO) for 8 hours. After 8 hours, supernatants were collected for MCP-1 measurement by ELISA. MCP-1 was measured using an immunoassay kit according to manufacturer's instructions (Thermo Scientific, Rockford, IL).
The MCP-1 inhibition assay was performed according to the Method described for FIG. 7.
The MCP-1 inhibition assay was performed according to the Method described for FIG. 8.
as §2

| Compound | reduction of UC score ([1]; 5-ASA group, not significantly) [%] | efficacy on ulcerative colitis score (in words) ([1]; 5-ASA positive control group) | mean reduction in IL-1β in distal colon tissue compared to DSS-treated control group (DSS-induced colitis) [%] | mean reduction in IL-6 in distal colon tissue compared to DSS-treated control group (DSS-induced colitis) [%] | IC50 (human PDE4B2) [µM] | IC50 (human PDE3A) [µM] | effect on LPS-induced TNF-α production (in words) ([2]; NR8383, 45 min pretreatment, 1 μg/ml LPS 8 h) | inhibition at 0.0625 µM ([2]; Rattus norvegicus, Macrophage, at 62.5 nM PMX-60056, NR8383, LPS 1 μg/ml 8 h) [%] | effect on MCP-1 induction after LPS stimulation (in words) ([3]; NR8383, 45 min pretreatment, LPS 1 μg/ml 8 h) | decrease in MCP-1 levels ([3]; at 0.5 μM, NR8383, LPS 1 μg/ml 8 h) [%] |
| --- | --- | --- | --- | --- | --- | --- | --- | --- | --- | --- |
| Nc1ccc(O)c(C(=O)O)c1 [5-ASA, 5-aminosalicylic acid, reference compound] | 67 | no significant efficacy | 33 | 86 | – | – | – | – | – | – |
| COc1ccc(NC(=O)[C@H](CCCCN)NC(=O)c2cc(NC(=O)[C@H](CCCCN)NC(=O)c3cc(NC(=O)[C@H](CCCCN)NC(=O)c4cc(NC(=O)[C@@H](N)CCCCN)ccc4OC)ccc3OC)ccc2OC)cc1C(N)=O [PMX-60056] | – | – | – | – | ~3 | 3 | inhibited | > 50 | strong inhibition | ≥ 25 |
